From patent US20260366023A1, “SORTILIN INHIBITORS FOR TREATMENT OF PATIENTS WITH FUNCTIONAL NEUROENDOCRINE TUMORS” (priority 2023, published 2026)

Experiments:
[1] = test system: BON neuroendocrine tumor cells; test: Serotonin (5HT) content of BON cell lysates after sortilin inhibition, HPLC; assay type: cell-based, human; conditions: 10 μM; 23 h in serotonin free medium, then fresh inhibitor for two more hours; compared to control
Description: (§1) (A)-(D) BON neuroendocrine tumor cells were incubated for 23 h in serotonin free medium with (Sort Inh) or without (Control) the sortilin inhibitor AF38469 (10 μM). Afterwards, the serotonin (5HT, A), Tryptophan (TRP, B) and Tyrosin (TYR, C) content as well as the content of the serotonin metabolite 5-hydroxyindoleacetic acid (5-HIAA) in the cell culture supernatant was assessed using high performance liquid chromatography (HPLC). The cells were treated with fresh sortilin inhibitor for two more hours. Subsequently, the 5HT, (E, F), TRP, (G, H) and TYR (I, J) content in the cell lysates was measured in the presence or absence of the secretion inductor of monoamines Paramethoxyamphetamin (PMA) via HPLC as well.
(§2) Next, we wanted to analyze whether sortilin has a functional role in hormone production or secretion of neuroendocrine tumors. We focused on one of the most relevant functional syndromes, i. e. the carcinoid syndrome which is caused due to the overproduction and secretion of serotonin (Clement et al., 2020). […] Afterwards we measured the serotonin (5HT) content in the cell culture supernatant by using high performance liquid chromatography (HPLC) (FIG. 3A-D). […] Subsequently, the 5HT content in the cell lysates was measured by using HPLC as well (FIG. 3E-J).

[2] = test system: BON neuroendocrine tumor cells; test: Serotonin (5HT) content of BON cell culture supernatant (secretion) after sortilin inhibition, HPLC; assay type: cell-based, human
Description: as §1, §2

BON cells = test: Alamar Blue cell proliferation/viability assay of BON cells after sortilin inhibition; assay type: cell-based, human; conditions: 5 d of sortilin inhibition
Description: FIG. 4: Proliferation of BON cells after sortilin inhibition. To exclude the possibility of toxic effects of sortilin inhibition on BON cells, a cell proliferation assay was performed using the Alamar Blue cell viability assay 5 days after sortilin inhibition.
To exclude the possibility of toxic effects of sortilin inhibition on the BON cells and thereby reducing 5HT production, we performed a cell proliferation assay using Alamar Blue.

[3] = test system: murine intestinal organoids enriched with neuroendocrine cells; test: Serotonin content of murine intestinal organoids enriched with neuroendocrine cells, HPLC; assay type: cell-based; conditions: 10 μM, four days, organoid lysates, vs control
Description: FIG. 7: Effect of sortilin inhibition on serotonin content of neuroendocrine organoids. (A) Experimental scheme for testing the effects of sortilin inhibition on serotonin levels in neuroendocrine organoids. Murine intestinal organoids are generated and enriched with neuroendocrine cells as previously described in (Kawasaki et al, 2018; Basak et al, 2017). […] Organoids are subsequently incubated four days in the absence (control) or the presence of the sortilin inhibitor AF38469 (10 μM). The lysates of these organoids are next harvested, and serotonin levels are measured by HPLC.
Some of these organoids were treated additionally four days with the sortilin inhibitor AF38469 (10 μM). Subsequently, the lysates of these organoids were harvested, and serotonin was measured by HPLC (FIG. 7A).

sortilin [4] = conditions: Schroder et al, 2014; cited from earlier work
[5] = Schroder et al, 2014; cited from earlier work
sortilin [6] = conditions: Lee et al., 2014; cited from earlier work
[7] = cited from earlier work
[8] = cited from earlier work; remark: listed apart in the source
sortilin [9] = conditions: Phase 2 and Phase 3 clinical trials, including NCT04374136, NCT03987295, NCT03636204 and NCT05053035; cited from earlier work

Cc1cccc(NC(=O)c2ccc(C(F)(F)F)cc2C(=O)O)n1 [AF38469, 2-[[(6-methyl-2-pyridinyl)amino]carbonyl]-5-(trifluoromethyl)-benzoic acid]
cellular content of 5HT [1]: significantly lower
concentration of 5HT in the supernatants ([2]; 10 μM, 23 h in serotonin free medium, HPLC): below the detection level
secretion of serotonin by NEN cells ([2]; NEN cells, summary statement referring to the Examples): suppress
reduction in cell proliferation (BON cells): could exclude any reduction in cell proliferation
concentration of serotonin (5HT) per cell [3]: lower concentration
selectivity for sortilin over several of its naturally occurring ligands, including neurotensin-1 (sortilin [4]): highly selective
oral bioavailability [5]: orally bioavailable

Cc1ccc(C(C)(C)C)c(OCCN2CCCC(C)C2)c1 (stereo not drawn) [MPEP, 1-[2-(2-tert-butyl-5-methylphenoxy)-ethyl]-3-methylpiperidine]
degradation of sortilin (sortilin [6]): increasing
sortilin protein levels (sortilin [6]): suppressing

Cc1cc(=O)oc2c(CN[C@@H](CC(C)C)C(=O)O)c(O)ccc12 [AF40431, (2S)-2-{[(7-hydroxy-4-methyl-2-oxo-2H-chromen-8-yl)methyl]amino}-4-methylpentanoic acid]
solubility [7]: comparably poor
membrane permeability [8]: comparably poor

B1: AL001: anti-sortilin antibody; heavy chain having an amino acid sequence of SEQ ID NO: 1 and a light chain having an amino acid sequence of SEQ ID NO: 2 (antibody, chains of the INN, looked up, V domains shown)
VH: QVQLQESGPGLVKPSETLSLTCAVSGYSISSGYYWGWIRQPPGKGLEWIGTIYHSGSTYYNPSLKSRVTISVDTSKNQFSLKLSSVTAADTAVYYCARQGSIKQGYYGMDVWGQGTTVTVSS
VL: DIVMTQSPLSLPVTPGEPASISCRSSQSLLRSTGYNYLDWYLQKPGQSPQLLIYLGSNRASGVPDRFSGSGSGTDFTLKISRAEAEDVGVYYCMQQQEAPLTFGGGTKVEIK
treatment of frontotemporal dementia and/or ALS (sortilin [9]): successfully tested
